Source: US20200085749A1, “IMMEDIATE-RELEASE TABLETS CONTAINING A DRUG AND PROCESSES FOR FORMING THE TABLETS” (Genentech, Inc., priority 2015, published 2020)

Tests used:
[1] = system: unresectable or metastatic melanoma that is BRAF^v600E mutation-positive; conditions: cited from earlier work
[2] = system: BRAF^v600 mutation-positive advance melanoma; conditions: cited from earlier work
[3] = 24-hour solubility of active drug in buffers across the physiological pH range; assay type: physicochemical; conditions: 37° C.
Procedure: Cobimetinib is considered to be a high-solubility, moderate-to-high permeability compound with in vivo absorption/pharmacokinetic characteristics consistent with Biopharmaceutics Classification System (BCS) Class 1. […] An active drug is considered highly soluble when the highest dose strength is soluble in <250 mL water over a pH range of 1 to 7.5.

Compound	decrease in the risk of disease progression or death ([1]; compared with dacarbazine) [%]	reduction in the risk of death ([1]; compared with dacarbazine) [%]	response rates ([1]; human, in vivo)	median progression-free survival [2] [months]	Solubility ([3]; 50 mM Acetate pH 4.5 (pH measured 4.5)) [µg/mL]	Solubility ([3]; 50 mM Phosphate pH 6.8 (pH measured 6.8)) [µg/mL]	Solubility ([3]; 50 mM Phosphate pH 7.5 (pH measured 7.5)) [µg/mL]	Solubility ([3]; 0.1M HCl pH 1.1 (pH measured 1.9)) [µg/mL]	Solubility ([3]; FaSSIF pH 6.5 (pH measured 6.4)) [µg/mL]	Solubility ([3]; FeSSIF pH 5.0 (pH measured 5.0)) [µg/mL]	Solubility ([3]; Water, pH Neutral (pH measured 7.5)) [µg/mL]
CCCS(=O)(=O)Nc1ccc(F)c(C(=O)c2c[nH]c3ncc(-c4ccc(Cl)cc4)cc23)c1F [vemurafenib, propane-1-sulfonic acid {3-[5-(4-chlorophenyl)-1H-pyrrolo[2,3-b]pyridine-3-carbonyl]-2,4-difluoro-phenyl}-amide]	74	63	greater than 50%	6.2	–	–	–	–	–	–	–
(S)-[3,4-Difluoro-2-(2-fluoro-4-iodoanilino)phenyl]{3-hydroxy-3-[(2S)-piperidin-2-yl]azetidin-1-yl} methanone [cobimetinib hemifumarate]	–	–	–	–	1080	780	730	48210	480	4130	720
